In test [1] the test system is Alternaria brassicae. The experiment in a line: Antifungal activity assay (microspectrophotometry). The test is classed as cell-based. Conditions: for IC50: host Brassica, inoculum Sp, period of incubation in AFP-solution 66. The procedure:
(§1) Antifungal activity was measured by microspectrophotometry as previously described (Broekaert, 1990, FEMS Microbiol Lett, 69:55-60). Routinely, tests were performed with 20 μl of a (filter-sterilized) test solution and 80 μl of a suspension of fungal spores (2×10^4 spores/ml) in half strength potato dextrose broth (1/2 PDB). […] Control microcultures contained 20 μl of sterile distilled water and 80 μl of the fungal spore suspension.
(§2) Unless otherwise stated the test organism was Fusarium culmorum (strain IMI 180420) and incubation was done at 25° C. for 48 hours. Percent growth inhibition is defined as 100 times the ratio of the corrected absorbance of the control microculture minus the corrected absorbance of the test microculture over the corrected absorbance at 595 nm of the control microculture. The corrected absorbance values equal the absorbance at 595 nm of the culture measured after 48 hours minus the absorbance at 595 nm measured after 30 min.
(§3) The antifungal potency of the purified proteins was assessed on different plant pathogenic fungi, using the assay described in Example 1. Growth of fungi, collection and harvest of fungal spores and preparation of mycelial fragments were done as previously described (Broekaert et al, 1990, FEMS Microbiol Lett, 69:55-60). Serial dilutions of the antifungal proteins were applied to the fungi, either using growth medium SMF- (the synthetic growth medium of Example 1), medium SMF+ (medium SMF- supplemented with 1 mM CaCl2 and 50 mM KCl), growth medium 1/2 PDB- (half strength potato dextrose broth as in Example 1) or growth medium 1/2 PDB+ (medium 1/2 PDB- supplemented with 1 mM CaCl2 and 50 mM Kcl). The percent growth inhibition was measured by microspectrophotometry. […]
(§4) The abbreviations used are: IC50 =concentration required for 50% growth inhibition determined as described in Example 1; ND=not determined; Sp=spores; PrSp=spores pregerminated in the medium for 24 hours; MF=mycelial fragments preincubated for 48 hours in the medium prior to addition of the proteins; BHR=broad host range; SF=saprophytic fungus; SMF-=synthetic growth medium as described in Example 1; SMF+=SMF- supplemented with 1 mM CaCl2 and 50 mM KCl; 1/2PDB-=half strength potato dextrose broth as described in Example 1; 1/2PDB+=1/2PDB- supplemented with 1 mM CaCl2 and 50 mM KCl.

Test [2] has as its system Alternaria longipes. Put plainly: Antifungal activity assay (microspectrophotometry). Conditions: strain CBS620.83, host Nicotiana, inoculum Sp, period of incubation in AFP-solution 70. The test is classed as cell-based. The procedure:
as §1, §2, §3, §4

Test [3] has as its system Cercospora beticola. The experiment in a line: Antifungal activity assay (microspectrophotometry). The format is cell-based. Conditions: strain SES; host Beta; medium 1/2PDB+; inoculum PrSp; period of incubation in AFP-solution. As for the experimental part: as §1, §2, §3, §4
Test [4] has as its system Leptospaeria maculans. The experiment in a line: Antifungal activity assay (microspectrophotometry). Conditions: for antifungal activity on Leptospaeria maculans (in words): in 1/2PDB+; for IC50: host Brassica. The format is cell-based. The procedure:
as §1, §2, §3, §4

Test [5] deals with crude α-amylase extract from guts of adult cockroaches. The experiment in a line: Inhibition of α-amylase. The test is classed as biochemical, Blatta orientalis. Conditions: cockroach gut enzyme; rates as high as 200 μg/ml. The procedure: (§5) A crude α-amylase extract was prepared from dissected guts of adult cockroaches (Blatta orientalis) by homogenising in 20 mM Tris/HCl, pH 7.5, 10 mM CaCl2 and removal of cell-debris by centrifugation. Human and porcine α-amylases were purchased from Sigma. Type 1-α-amylaseinhibitor from wheat (purchased from Sigma) was used as a positive control. Amylase extracts were incubated with peptides for 20 min at 30° C. prior to addition of starch and enzyme activity was detected using the method of Bernfeld (1955, Methods Enzymol, Colwick and Kaplan eds, vol 1:149-158).
(§6) The α-amylase inhibition activities of Hs-AFP1 and Ah-AMP1 were compared on α-amylases from the three sources to that of the Sorgum bicolor homologue SIα3, previously reported to inhibit insect gut α-amylases (Bloch and Richardson, 1991, FEBS Lett, 279:101-104). SIα3 inhibited the activity of the enzymes from insect gut and human saliva to greater than 70% at rates as low as 5 μg/ml.

Test [6] concerns the target T1, Human α-amylase (human saliva) (Homo sapiens, UniProt P0DUB6).
T1 construct: the enzymes from insect gut and human saliva; purchased Sigma; host or cells: human saliva
T1 sequence (P0DUB6 16-511): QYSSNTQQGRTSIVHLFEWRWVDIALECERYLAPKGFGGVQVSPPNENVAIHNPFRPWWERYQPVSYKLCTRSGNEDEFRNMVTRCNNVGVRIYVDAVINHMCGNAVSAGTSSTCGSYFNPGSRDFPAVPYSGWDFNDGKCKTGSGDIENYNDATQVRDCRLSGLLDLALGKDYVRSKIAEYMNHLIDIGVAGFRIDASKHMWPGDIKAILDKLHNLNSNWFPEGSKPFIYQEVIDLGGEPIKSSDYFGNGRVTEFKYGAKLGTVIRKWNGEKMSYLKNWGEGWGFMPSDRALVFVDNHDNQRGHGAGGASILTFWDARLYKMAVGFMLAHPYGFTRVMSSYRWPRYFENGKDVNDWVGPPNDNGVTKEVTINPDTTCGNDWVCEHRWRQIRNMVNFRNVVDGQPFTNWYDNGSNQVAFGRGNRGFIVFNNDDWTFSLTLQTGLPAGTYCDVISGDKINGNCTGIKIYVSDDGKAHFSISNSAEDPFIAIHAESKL
Put plainly: Inhibition of α-amylase. The format is biochemical. Conditions: human enzyme; rates as high as 200 μg/ml. As for the experimental part:
as §5, §6

Test [7] deals with T2, porcine α-amylase (porcine pancreas) (Sus scrofa, UniProt P00690).
T2 construct: the enzyme from porcine pancreas; purchased Sigma; host or cells: porcine pancreas
T2 sequence (P00690 16-511): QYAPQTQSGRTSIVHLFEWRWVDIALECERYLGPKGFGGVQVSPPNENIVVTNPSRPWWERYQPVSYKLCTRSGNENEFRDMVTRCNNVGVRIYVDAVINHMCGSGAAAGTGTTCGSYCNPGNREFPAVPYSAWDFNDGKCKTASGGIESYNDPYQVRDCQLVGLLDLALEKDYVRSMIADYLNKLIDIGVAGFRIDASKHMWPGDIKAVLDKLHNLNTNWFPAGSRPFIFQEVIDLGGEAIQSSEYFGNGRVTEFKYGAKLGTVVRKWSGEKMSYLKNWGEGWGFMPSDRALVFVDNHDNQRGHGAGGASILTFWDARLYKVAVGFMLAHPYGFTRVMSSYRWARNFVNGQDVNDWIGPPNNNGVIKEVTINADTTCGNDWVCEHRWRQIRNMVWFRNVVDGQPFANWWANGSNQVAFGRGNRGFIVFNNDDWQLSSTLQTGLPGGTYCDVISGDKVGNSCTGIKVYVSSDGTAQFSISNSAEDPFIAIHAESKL
The experiment in a line: Inhibition of α-amylase. The test is classed as biochemical. Conditions: porcine enzyme; rates as high as 200 μg/ml. As for the experimental part:
as §5, §6

Test [8] concerns hyphae of Fusarium culmorum. The experiment in a line: Morphological effect on hyphae. The format is cell-based.
[9] abbreviates: strain LM36uea, medium 1/2PDB+, inoculum Sp, period of incubation in AFP-solution 48.
Setting [10] is: strain LM36uea, medium 1/2PDB-, inoculum Sp, period of incubation in AFP-solution 48.
Setting [11] is: strain SES1, medium 1/2PDB+, inoculum PrSp, period of incubation in AFP-solution 120.
Setting [12] is: strain SES2, medium 1/2PDB+, inoculum PrSp, period of incubation in AFP-solution 120.

One may read the IC50 as the point on the concentration scale where inhibition reaches its midpoint. Consider “Ah-AMP1: Aesculus hippocastanum antimicrobial protein 1; 5 kDa polypeptide purified from seeds, 50 amino acids, SEQ ID NO 2 (LCNERPSQTWSGNCGNTAHCDKQCQDWEKASHGACHKRENHWKCFCYFNC)”, for which the IC50 in test [1] (medium SMF+) came out at 3 µg/mL; in test [1] (medium SMF-), 1.5 µg/mL; in test [2] (medium SMF+), 100 µg/mL; in test [2] (medium SMF-), 25 µg/mL; in test [3], 1.5 µg/mL; in test [4] (setting [9]), 6 µg/mL. In addition, the figures for the IC50 in test [4] (setting [10]), in test [4] (setting [11]) and in test [4] (setting [12]) were 0.5 µg/mL, below 0.75 µg/mL and below 0.75 µg/mL, respectively. Moreover, in test [1] (on Alternaria brassicae), the “reduction of activity in medium SMF- versus SMF+” value is “two-fold”. Besides, in test [4], the “antifungal activity on Leptospaeria maculans (in words)” value is “highly active”. Further, the “inhibition of α-amylase activity” value in test [5], in test [6] and in test [7] was “no inhibition” in each case. The “hyper-branching of hyphae of Fusarium culmorum” value in test [8] is “does not cause hyper-branching”.
With “Hs-AFP1: Heuchera sanquinea antifungal protein 1; 5 kDa polypeptide purified from seeds, 54 amino acids, SEQ ID NO 1 (DGVKLCDVPSGTWSGHCGSSSKCSQQCKDREHFAYGGACHYQFPSVKCFCKRQC)”, the IC50 was 3 µg/mL in test [1] (medium SMF+); 1.5 µg/mL in test [1] (medium SMF-); 6 µg/mL in test [2] (medium SMF+); 0.75 µg/mL in test [2] (medium SMF-); 1.5 µg/mL in test [3]; above 100 µg/mL in test [4] (setting [9]). Further, the half-inhibitory concentration (IC50) in test [4] (setting [10]) is 25 µg/mL; in test [4] (setting [11]), above 100 µg/mL; in test [4] (setting [12]), above 100 µg/mL. Also, the “antifungal activity on Leptospaeria maculans (in words)” value in test [4] is recorded as “is not”. For the same substance, the “inhibition of α-amylase activity” value in test [5], in test [6] and in test [7] was “no inhibition” each time. For the same substance, the “hyper-branching of hyphae of Fusarium culmorum” value in test [8] is reported as “causes hyper-branching”.

The values are drawn from patent US5750504A, “Antimicrobial proteins” (Zeneca Agrochemicals, priority 1996, dated 1998).
